Measurements published in US20220024970A1, “COMPOUNDS WITH HIV MATURATION INHIBITORY ACTIVITY” (VIIV HEALTHCARE UK (NO. 4) LIMITED, priority 2018, published 2022).
Structures can show the parent of a compound that is named as a salt.

Legend:
Assay type in all cases: physicochemical
[1] = Solubility in simulated intestinal fluids at controlled ambient room temperature; settings: for Solubility in FaSSIF and FeSSIF (in words): mesylate compared to the bis-HCl salt
[2] = Water vapor sorption (DVS) at 25° C.
Method: Water vapor sorption experiments were performed using a Surface Measurement System DVS Advantage at 25° C. The Bis-HCl salt of Compound A reversibly absorbed approximately 7% weight per weight of water between 0% and 90% relative humidity at 25° C. […] Upon desorption the conversions were reversible. The Form 1 crystalline mesylate salt of Compound A reversibly absorbed approximately 1.6% weight per weight of water between 0% and 90% relative humidity at 25° C.

[3] = Thermal behaviour during heating (DSC)
Method: Differential Scanning calorimetry (DSC) data were acquired on a TA Instruments Q20 DSC. The method parameters were: Heat Program: 30° C. to 300° C. using a 10° C. per minute heating rate, under a nitrogen gas flow.

[4] = Fasted State Simulated Intestinal Fluid (FaSSif) pH 6.5, controlled ambient room temperature
[5] = Fed State Simulated Intestinal Fluid (FeSSif) pH 6.5, controlled ambient room temperature

Solubility in FaSSIF and FeSSIF (in words) ([1]; listed as parent free base of Compound A)	Solubility of Specified Version [1, 4]	Solubility of Specified Version [1, 5]	Solubility in FaSSIF and FeSSIF (in words) ([1]; listed as Form 1 of the mesylate salt of Compound A)	Solid form change upon moisture sorption ([2]; ambient humidity conditions)	Water reversibly absorbed ([2]; between 0% and 90% relative humidity at 25° C.)	Hygroscopicity (in words) ([2]; compared to the bis-HCl salt, ambient humidity conditions)	Thermal loss of counter-ion during heating [3]	Structure (SMILES)
poor solubility	Less than 0.001 mg/mL	Less than 0.001 mg/mL						C=C(C)[C@@H]1CC[C@]2(NCCN3CCS(=O)(=O)CC3)CC[C@]3(C)[C@H](CC[C@@H]4[C@@]5(C)CC=C(C6=CC[C@@](CF)(C(=O)O)CC6)C(C)(C)[C@@H]5CC[C@]43C)[C@@H]12 [Parent Compound A, (1R)-4-[(1R,3aS,5aR,5bR,7aR,11aS,11bR,13aR,13bR)-3a-{[2-(1,1-dioxido-4-thiomorpholinyl)ethyl]amino}-5a,5b,8,8,11a-pentamethyl-1-(1-propen-2-yl)-2,3,3a,4,5,5a,5b,6,7,7a,8,11,11a,11b,12,13,13a,13b-octadecahydro-1H-cyclopenta[a]chrysen-9-yl]-1-(fluoromethyl)-3-cyclohexene-1-carboxylic acid]
	100 µg/mL	600 µg/mL	greater solubility	no significant form change	approximately 1.6 % weight per weight	lower hygroscopicity	does not show this behavior	C=C(C)[C@@H]1CC[C@]2(NCCN3CCS(=O)(=O)CC3)CC[C@]3(C)[C@H](CC[C@@H]4[C@@]5(C)CC=C(C6=CC[C@@](CF)(C(=O)O)CC6)C(C)(C)[C@@H]5CC[C@]43C)[C@@H]12 [Form 1 of Mesylate salt of Compound A]
